We go through 1 cell line from the supplement of paper PMC10307832.

Common to all, as to assay: relative viability (nuclei count vs DMSO), 5 days (fraction); higher = more cells survive
Compound in assay [1]: O=C(Nc1cc(C(F)(F)F)cc(C(F)(F)F)c1)c1cc(Cl)ccc1O [IMD-0354] + C[C@]1(O)C[C@@H](c2nc(-c3ccc4ccc(-c5ccccc5)nc4c3)c3c(N)nccn32)C1 [Linsitinib] (partner 1 µM)
In short, it runs like this: (§1)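 A single step with final 0.05% Triton X-100, 1% formaldehyde and 1 ug/ml Hoechst fixed the cells and stained nuclei 5 days after treatment. Lung cancer cell lines in 1536-well plates had been treated by pin tool the day after seeding with one drug alone or a fixed anchor-drug dose plus five library-drug doses (not always all listed) in √10 steps, and nuclei were counted on 4× images. Relative viability is the ratio of nuclei in treated wells to nuclei in vehicle wells, taken as the median of duplicate plates.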

Compound in assay [2]: Cc1cnc(CNC(=O)c2c(=O)c3ccc(N4CCCN(C)CC4)nc3n3c2sc2ccccc23)cn1 [CX-5461] + COc1cccc2cc(-c3nc([C@H]4CC[C@H](C(=O)O)CC4)n4ncnc(N)c34)[nH]c12 [OSI-027] (partner 0.5 µM)
Summed up:
as §1

Compound in assay [3]: O=C(Nc1cc(C(F)(F)F)cc(C(F)(F)F)c1)c1cc(Cl)ccc1O [IMD-0354] + Cc1cc(Nc2cc(N3CCN(C)CC3)nc(Sc3ccc(NC(=O)C4CC4)cc3)n2)n[nH]1 [Tozasertib] (partner 0.1 µM)
Summed up:
as §1

Compound in assay [4]: Cc1cnc(CNC(=O)c2c(=O)c3ccc(N4CCCN(C)CC4)nc3n3c2sc2ccccc23)cn1 [CX-5461] + CC1(C)CCC(c2ccc(Cl)cc2)=C(CN2CCN(c3ccc(C(=O)NS(=O)(=O)c4ccc(N[C@H](CCN5CCOCC5)CSc5ccccc5)c(S(=O)(=O)C(F)(F)F)c4)cc3)CC2)C1 [Navitoclax] (partner 0.5 µM)
Summed up: as §1

In the case of UMC-11, the relative viability came to 1.04 in assay [1] (first compound 0.04 µM); 1.04 in assay [1] (first compound 0.1265 µM); 0.559 in assay [1] (first compound 0.4 µM); 0.254 in assay [1] (first compound 1.265 µM); 0.285 in assay [1] (first compound 4 µM); 0.542 in assay [2] (first compound 0.01 µM). Also, the relative viability is 0.431 in assay [2] (first compound 0.03162 µM); 0.389 in assay [2] (first compound 0.1 µM); 0.475 in assay [2] (first compound 0.3162 µM); 0.274 in assay [2] (first compound 1 µM); 0.202 in assay [3] (first compound 0.04 µM); 0.219 in assay [3] (first compound 0.1265 µM). For the same cell line, the relative viability in assay [3] (first compound 0.4 µM) is 0.187; in assay [3] (first compound 1.265 µM) it was 0.182; in assay [3] (first compound 4 µM) it was 0.203; in assay [4] (first compound 0.01 µM) it was 0.319; in assay [4] (first compound 0.03162 µM) it was 0.294; in assay [4] (first compound 0.1 µM), 0.302. For the same cell line, the relative viability was found to be 0.282 in assay [4] (first compound 0.3162 µM) and 0.23 in assay [4] (first compound 1 µM).
